From patent publication US20250129103A1, “METHODS FOR TREATMENT OF CANCER” (Frontier Medicines Corporation, priority 2022, published 2025)
Converted amounts (≈) assume the structure as drawn.

Key:
[1] = Determination of logD (1-octanol / phosphate buffer pH 7.4); type: physicochemical; conditions: 1-octanol/phosphate buffer, pH 7.4, pH 7.4, 1-octanol/phosphate buffer; read-out: Log D, pH 7.4
Outline: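 Each phase analysed by LCMS after 1 h shaking at 800 rpm and centrifugation, room temperature. Phases were mutually saturated 1-octanol and 100 mM phosphate buffer at pH 7.4. LogD derived from the phase concentrations.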

[2] = target: KRAS G12C (GMPPNP-loaded) and cRAF (Ras-binding domain) interaction (Homo sapiens (Human), UniProt P01116, C118S/C51S/C80L/G12C); experiment: Inhibition of KRAS G12C and cRAF binding (AlphaScreen); conditions: KRAS G12C loaded with GMPPNP, cRaf RBD, 2 hours preincubation; read-out: Raf-1 RBD K-Ras IC50
Outline: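 AlphaScreen readout (680 nm excitation, 570 nm emission) of RBD binding after a 60-90 min bead step at room temperature. This step follows 2 h compound exposure of GMPPNP-preloaded KRAS G12C in Hepes pH 7.4 buffer with MgCl2 and 10 μM GMPPNP.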

[3] = Determination of kinetic solubility (pH 7.4); type: physicochemical; conditions: phosphate buffer, pH 7.4, aqueous buffer, kinetic from dmso stock, 50 mM phosphate buffer pH 7.4, read-out: Ksol, pH 7.4
Outline: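 Solubility taken from filtrate peak areas on a calibration curve (HPLC-UV, LC-MS/MS). Before filtration and centrifugation, compound was shaken for 2 h at room temperature in pH 7.4 50 mM phosphate buffer.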

[4] = target: KRAS G12C (GMPPNP-loaded) and PI3Ka (Ras-binding domain) interaction (Homo sapiens (Human), UniProt P01116, C118S/C51S/C80L/G12C); experiment: Inhibition of KRAS G12C and PI3Ka binding (AlphaScreen); conditions: KRAS G12C loaded with GMPPNP, PI3Ka RBD, 2 hours preincubation; read-out: PI3K RBD K-Ras IC50
Outline: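 Biotin-AviTag Cys-light KRAS G12C (aa 1-169, C51S/C80L/C118S), GMPPNP-loaded, 1.5 nM, preincubated 2 h with compound, then His-tagged PI3Ka RBD (aa 157-300, 100 nM) plus AlphaScreen beads added for 60-90 min, RT. Buffer Hepes pH 7.4, 10 μM GMPPNP, 2% DMSO; 10-point 1:3 from 50 μM; 4-parameter IC50.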

Chain of KRAS G12C (GMPPNP-loaded) and cRAF (Ras-binding domain) interaction (P01116 other isoform, or with tags, fused parts or gaps G12C/C51S/C80L/C118S): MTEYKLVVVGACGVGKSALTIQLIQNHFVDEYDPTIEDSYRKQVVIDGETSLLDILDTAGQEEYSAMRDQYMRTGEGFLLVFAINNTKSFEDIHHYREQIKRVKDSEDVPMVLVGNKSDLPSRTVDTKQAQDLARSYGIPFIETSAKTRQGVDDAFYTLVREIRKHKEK
Chain of KRAS G12C (GMPPNP-loaded) and PI3Ka (Ras-binding domain) interaction (P01116 other isoform, or with tags, fused parts or gaps G12C/C51S/C80L/C118S): as above

| SMILES | logD [1] | IC50 [2] [nM] | solubility kinetic at 2 h [3] [µg/mL] | IC50 [4] [nM] |
| --- | --- | --- | --- | --- |
| N#CC[C@H]1CN(c2nc(OC[C@@]34CCCN3C[C@H](F)C4)nc3c(F)c(-c4cccc5ccc(F)c(F)c45)ncc23)CCN1C(=O)/C=C/CN1CCSCC1 [Compound 238] | 3.48 | < 10 | 21.3 (≈ 28 µM) | < 10 |
| N#CC[C@H]1CN(c2nc(OC[C@@]34CCCN3C[C@H](F)C4)nc3c(F)c(-c4cccc5ccc(F)c(F)c45)ncc23)CCN1C(=O)/C=C/CN1CCOCC1 [Example 83, 2-((S)-4-(7-(7,8-difluoronaphthalen-1-yl)-8-fluoro-2-(((2R,7aS)-2-fluorotetrahydro-1H-pyrrolizin-7a(5H)-yl)methoxy)pyrido[4,3-d]pyrimidin-4-yl)-1-((E)-4-morpholinobut-2-enoyl)piperazin-2-yl)acetonitrile] | 2.98 | < 10 | 93.4 (≈ 125 µM) | < 10 |
| N#CC[C@H]1CN(c2nc(OC[C@@]34CCCN3C[C@H](F)C4)nc3c(F)c(-c4cccc5ccc(F)c(Cl)c45)ncc23)CCN1C(=O)/C=C/CN1CC2CCC(C1)O2 [Example 78, 2-((2S)-1-((E)-4-(8-oxa-3-azabicyclo[3.2.1]octan-3-yl)but-2-enoyl)-4-(7-(8-chloro-7-fluoronaphthalen-1-yl)-8-fluoro-2-(((2R,7aS)-2-fluorotetrahydro-1H-pyrrolizin-7a(5H)-yl)methoxy)pyrido[4,3-d]pyrimidin-4-yl)piperazin-2-yl)acetonitrile] | 3.64 | < 10 | 85 (≈ 108 µM) | < 10 |
| CCO[C@@H]1CCN(C/C=C/C(=O)N2CCN(c3nc(OC[C@@]45CCCN4C[C@H](F)C5)nc4c(F)c(-c5cccc6cccc(Cl)c56)ncc34)C[C@@H]2CC#N)C1 [Compound 92, 2-((S)-4-(7-(8-chloronaphthalen-1-yl)-8-fluoro-2-(((2R,7aS)-2-fluorohexahydro-1H-pyrrolizin-7a-yl)methoxy)pyrido[4,3-d]pyrimidin-4-yl)-1-((E)-4-((R)-3-ethoxypyrrolidin-1-yl)but-2-enoyl)piperazin-2-yl)acetonitrile] | 3.35 | < 10 | 104 (≈ 135 µM) | < 10 |
| N#CC[C@H]1CN(c2nc(OC[C@@]34CCCN3C[C@H](F)C4)nc3c(F)c(-c4cccc5ccc(F)c(Cl)c45)ncc23)CCN1C(=O)/C=C/c1ccnc(C2CC2)n1 [Compound 208] | 4.2 | < 10 | 0.01 (≈ 0.0128 µM) | < 10 |
| N#CC[C@H]1CN(c2nc(OC[C@@]34CCCN3C[C@H](F)C4)nc3c(F)c(-c4cccc5cccc(Cl)c45)ncc23)CCN1C(=O)/C=C/CN1C2COCC1C2 [Compound 189] | 2.96 | < 10 | 109 (≈ 144 µM) | < 10 |
| Cc1nccc(/C=C/C(=O)N2CCN(c3nc(OCC45CCCN4CCC5)nc4c3CCN(c3cccc5cccc(Cl)c35)C4)C[C@@H]2CC#N)n1 [Compound 202] | 3.38 | < 10 | 90.2 (≈ 128 µM) | < 10 |
| Cc1cc(/C=C/C(=O)N2CCN(c3nc(OC[C@@]45CCCN4C[C@H](F)C5)nc4c(F)c(-c5cccc(Cl)c5C5CC5)ncc34)C[C@@H]2CC#N)nc(C)n1 [Compound 102, 2-((S)-4-(7-(3-chloro-2-cyclopropylphenyl)-8-fluoro-2-(((2R,7aS)-2-fluorotetrahydro-1H-pyrrolizin-7a(5H)-yl)methoxy)pyrido[4,3-d]pyrimidin-4-yl)-1-((E)-3-(2,6-dimethylpyrimidin-4-yl)acryloyl)piperazin-2-yl)acetonitrile] | 3.98 | < 10 | 12 (≈ 16.2 µM) | < 10 |
| Cc1cc(N)nc([C@@H]2Cc3nc(OC[C@@]45CCCN4C[C@H](F)C5)nc(N4CCN(C(=O)/C=C/CN(C)C)[C@@H](CC#N)C4)c3C[C@H]2C)c1C(F)(F)F [Compound 322] | 2.79 | < 10 | 133 (≈ 186 µM) | < 10 |
| CC(C)(C)c1noc(/C=C/C(=O)N2CCN(c3nc(OCC45CCCN4CCC5)nc4c3CCN(c3cccc5cccc(Cl)c35)C4)C[C@@H]2CC#N)n1 [Compound 30] | 3.09 | 10 to 100 | 2.33 (≈ 3.16 µM) | 10 to 100 |
| Cc1nccc(/C=C/C(=O)N2CCN(c3nc(OC[C@@]45CCCN4C[C@H](F)C5)nc4c(F)c(-c5cccc6ccccc56)ncc34)C[C@@H]2CC#N)n1 [Compound 215] | 2.16 | < 10 | 16.5 (≈ 23.6 µM) | < 10 |
